{
  "source": "patent US20040087576A1",
  "about": "“Antimnemonic therapy for hypermemory syndromes” (priority 2002, published 2004)",
  "origin": "cited, not measured here",
  "key": {"[1]": {"test_system": "reconsolidation of retrieved memories", "settings": "in vivo"}, "[2]": {"test_system": "conditioned fear", "settings": "in vivo"}, "[3]": {"test_system": "rat fear-conditioning", "settings": "rats"}, "[4]": {"settings": "patients; doses of 100-500 mg/day"}, "[5]": {"test_system": "PTSD symptoms", "settings": "patients; 10-day course, 40 mg four times daily, versus placebo; assessed 3 months after the trauma"}, "[6]": {"test_system": "emotion-related memory", "settings": "rats; post-training administration"}},
  "data": [
    {"smiles": "NC(CCCP(=O)(O)O)C(=O)O", "note": "(stereo not drawn) [AP5]", "values": [
      {"measurement": "amnesia by blocking the reconsolidation of retrieved memories", "setting": "[1]", "result": "induce amnesia by blocking the reconsolidation of retrieved memories"}
    ]},
    {"smiles": "N[C@@H]1CONC1=O", "note": "[D-cycloserine]", "values": [
      {"measurement": "extinction of conditioned fear", "setting": "[2]", "result": "facilitate the extinction of conditioned fear"}
    ]},
    {"smiles": "C[C@]12N[C@H](Cc3ccccc31)c1ccccc12", "note": "[MK-801]", "values": [
      {"measurement": "amnesia by blocking the reconsolidation of retrieved memories", "setting": "[1]", "result": "induce amnesia by blocking the reconsolidation of retrieved memories"}
    ]},
    {"smiles": "COc1ccc(C[C@H]2NC[C@H](O)[C@H]2OC(C)=O)cc1", "note": "[anisomycin]", "values": [
      {"measurement": "reconsolidation of reactivated memories", "setting": "[3]; cue 1 or 14 days after conditioning, drug immediately after cue, tested 24 hours later", "result": "blocked reconsolidation of reactivated memories"},
      {"measurement": "fear response to the cue", "setting": "[3]; cue presented a further twenty four hours after treatment", "result": "did not display the fear response"}
    ]},
    {"smiles": "CC12CC3CC(C)(C1)CC(N)(C3)C2", "note": "[memantine]", "values": [
      {"measurement": "tolerability", "setting": "[4]", "result": "well tolerated"}
    ]},
    {"smiles": "CC(C)NCC(O)COc1cccc2ccccc12", "note": "(stereo not drawn) [propranolol]", "values": [
      {"measurement": "ratings of PTSD symptoms", "setting": "[5]", "result": "slightly, but significantly, lower"},
      {"measurement": "consolidation of emotion-related memory", "setting": "[6]", "result": "blocked the consolidation of emotion-related memory"},
      {"measurement": "amnesia by blocking the reconsolidation of retrieved memories", "setting": "[1]", "result": "induce amnesia by blocking the reconsolidation of retrieved memories"}
    ]}
  ]
}
